One data set addresses CYP 3A4 (Homo sapiens, UniProt P08684). The data set is described as follows: CYP450 inhibition 3A4. In kind it is in vitro ADME.
A short description of data set [1]: Plasma protein binding, mouse. In kind it is in vitro ADME. Conditions: bound; for fraction unbound at 6 h, 5 µM: mouse, plasma, pH 7.4, mouse plasma, read-out: PPB mouse (converted).
The test system of data set [2] is 68 GPCRs, ion channels, and transporters. The experiment in a line: Eurofins Lead Profiling Panel, radioligand binding displacement. Conditions: 68 targets, 10 μM.
For the next data set, the target named is T1, hTREK-1 (Homo sapiens, UniProt O95069).
T1 construct: expressed in transfected cells
T1 sequence (O95069 1-426): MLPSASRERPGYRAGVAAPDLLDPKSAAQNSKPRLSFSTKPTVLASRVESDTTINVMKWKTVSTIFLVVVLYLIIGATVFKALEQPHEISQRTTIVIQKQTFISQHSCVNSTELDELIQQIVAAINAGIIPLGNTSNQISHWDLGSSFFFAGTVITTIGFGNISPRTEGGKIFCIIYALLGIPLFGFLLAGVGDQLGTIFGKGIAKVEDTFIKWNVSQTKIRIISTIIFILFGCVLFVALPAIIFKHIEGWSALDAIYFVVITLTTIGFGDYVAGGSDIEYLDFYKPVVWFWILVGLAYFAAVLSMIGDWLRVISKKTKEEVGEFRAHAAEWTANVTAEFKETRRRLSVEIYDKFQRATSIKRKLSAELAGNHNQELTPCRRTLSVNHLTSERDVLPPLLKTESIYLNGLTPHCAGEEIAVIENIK
The experiment in a line: hTREK-1 manual patch clamp assay. In kind it is cell-based. Conditions: human TREK-1, manual patch clamp; read-out: TREK-1 IC50 (human, MPC). The procedure:
hTREK-1 and mTREK-1 patch clamp assay
(§1) CHO-K1 cells stably expressing hTREK-1 or CHO-K1 cells transiently expressing mouse TREK-1 (mTREK-1) were plated on glass coverslips, and voltage clamped in the whole-cell configuration of the patch clamp technique. Cells were voltage clamped at a holding potential of - 80 mV and the stepped to 0 mV for 500 msec. The voltage was subsequently ramped from -120mV to +80 mV over a 500 msec duration. This step-ramp protocol was repeated every 10 sec. The bathing solution contained the following: 135 mM NaCl, 5 mM KCl, 2 mM CaCl2, 1 mM MgCl2, 5 mM D-Glucose, 10 mM HEPES, 10 mM sucrose (adjusted to pH 7.4 with NaOH, 300 mosmol/kg H2O). The pipette solution contained the following: 135 mM KCl, 2 mM MgCl2, 1 mM EGTA, 10 mM HEPES, 2 mM Na2ATP (adjusted to pH 7.35 with KOH, 285 mosmol/kg H2O). Test […]
(§2) compounds were dissolved into the bathing solution. The effects of test compound on the currents were calculated at 0 mV using the following equations:
(§3) % inhibition = (1-post current/pre current) x 100
(§4) % inhibition vs compound concentrations were plotted in GraphPad Prism and calculated IC50. […]
(The patch-clamp technique gives a direct electrical read-out from membranes.)

In a further data set the target is T2, human TREK-2 (Homo sapiens, UniProt P57789).
T2 construct: expressed in transfected cells
T2 sequence (P57789 whole entry): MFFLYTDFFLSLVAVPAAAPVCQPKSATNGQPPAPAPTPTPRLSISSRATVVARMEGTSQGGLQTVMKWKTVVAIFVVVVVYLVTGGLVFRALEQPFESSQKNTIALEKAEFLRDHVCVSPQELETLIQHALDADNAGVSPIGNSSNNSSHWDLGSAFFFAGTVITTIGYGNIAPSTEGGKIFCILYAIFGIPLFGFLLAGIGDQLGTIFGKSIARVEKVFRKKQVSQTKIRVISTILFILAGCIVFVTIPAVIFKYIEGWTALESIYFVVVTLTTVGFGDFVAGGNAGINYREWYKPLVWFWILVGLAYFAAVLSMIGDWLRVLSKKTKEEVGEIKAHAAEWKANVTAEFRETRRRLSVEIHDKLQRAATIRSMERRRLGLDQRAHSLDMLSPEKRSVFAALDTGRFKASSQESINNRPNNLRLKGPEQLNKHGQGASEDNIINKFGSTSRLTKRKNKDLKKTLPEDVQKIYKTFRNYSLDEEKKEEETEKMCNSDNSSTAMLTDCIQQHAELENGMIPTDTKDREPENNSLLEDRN
The data set is described as follows: hTREK-2 manual patch clamp assay. Conditions: human TREK-2, manual patch clamp; read-out: TREK-2 IC50 (human, MPC). In kind it is cell-based. The procedure:
as §2, §3, §4
hTREK-2 patch clamp assay
as §1, with “HEK293” for “CHO-K1”, “human TREK-2 are” for “hTREK-1 or CHO-K1 cells transiently expressing mouse TREK-1 (mTREK-1) were”, “are” for “were”, “-80” for “- 80”, “is” for “was”, “Test compounds are dissolved into the bathing solution. Experiments are terminated with the addition of the control compound (tert-butyl (3-((4-(benzyloxy)-2-methylphenyl)carbamoyl)-4-chlorophenyl)carbamate) so that maximal inhibition can be determined. The effects of test compound on the currents can be calculated at 0 mV using the” for “Test”

The nature of the next data set: ChromatoLogD. In kind it is physicochemical.

From paper PMC12621189, “Optimization of Selective and CNS Penetrant Alkyne-Based TREK Inhibitors: The Discovery and Characterization of ONO-9517601 (VU6022856) and ONO-7927846 (VU6024391)” (Journal of Medicinal Chemistry, 2025) come the findings set out here.

Chain of CYP 3A4 (P08684 whole entry): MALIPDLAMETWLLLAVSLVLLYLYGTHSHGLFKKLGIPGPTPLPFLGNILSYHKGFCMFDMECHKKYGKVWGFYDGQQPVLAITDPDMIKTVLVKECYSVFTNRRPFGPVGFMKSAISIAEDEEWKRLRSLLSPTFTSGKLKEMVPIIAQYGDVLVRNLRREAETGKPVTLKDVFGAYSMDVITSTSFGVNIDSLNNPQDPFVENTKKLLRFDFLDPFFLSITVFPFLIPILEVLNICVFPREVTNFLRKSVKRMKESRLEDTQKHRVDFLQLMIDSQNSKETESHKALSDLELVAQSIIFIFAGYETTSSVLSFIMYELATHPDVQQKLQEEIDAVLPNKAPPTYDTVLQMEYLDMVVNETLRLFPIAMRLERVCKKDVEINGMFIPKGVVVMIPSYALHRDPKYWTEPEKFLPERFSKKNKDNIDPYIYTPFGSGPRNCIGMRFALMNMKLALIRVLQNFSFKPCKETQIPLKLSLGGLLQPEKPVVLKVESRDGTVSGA

`CC(=O)N1CCC(n2ncc(Cl)c2C(=O)Nc2ncc(C#Cc3ccccc3)cc2C)CC1` [Compound 10, 1-(1-Acetylpiperidin-4-yl)-4-chloro-N-(3-methyl-5-(phenylethynyl)pyridin-2-yl)-1H-pyrazole-5-carboxamide]: the half-maximal inhibitory concentration (IC50) on CYP 3A4 is 10800 nM; at hTREK-1, 63 nM; at human TREK-2 it was 81 nM. Also, in data set [1], the fraction unbound at 6 h, 5 µM is 0.018. In data set [2], the “targets with >50% inhibition in Lead Profiling Panel” value is listed as “only two targets displayed >50% inhibition”. The compound further registered a chromatographic logD in the data set “ChromatoLogD” of 3.8.

Compound `Cc1cc(C#Cc2ccccc2)cnc1NC(=O)c1c(Cl)cnn1[C@H]1CCOC1` [Compound 15a, (S)-4-Chloro-N-(3-methyl-5-(phenylethynyl)pyridin-2-yl)-1-(tetrahydrofuran-3-yl)-1H-pyrazole-5-carboxamide] showed a PPB mouse in data set [1] (mouse plasma) of 98.0%. In data set [1], the fraction unbound at 6 h, 5 µM was approximately 0.02.

For the compound `Cc1cc(C#Cc2ccccc2)cnc1NC(=O)c1cc(OC[C@@H]2COCCO2)ccc1Cl` [Compound 7, (S)-5-((1,4-Dioxan-2-yl)methoxy)-2-chloro-N-(3-methyl-5-(phenylethynyl)pyridin-2-yl)benzamide], the IC50 on hTREK-1 stood at 79 nM. In “ChromatoLogD”, the chromatographic logD turned out to be 4.14.

On to `CC(=O)N1CC[C@@H](n2ncc(Cl)c2C(=O)Nc2ncc(C#Cc3ccc(F)cc3)cc2C)[C@H](F)C1` [Compound 11, 1-((3R,4R)-1-Acetyl-3-fluoropiperidin-4-yl)-4-chloro-N-(5-((4-fluorophenyl)ethynyl)-3-methylpyridin-2-yl)-1H-pyrazole-5-carboxamide], for which the IC50 at CYP 3A4 came out at 10500 nM; on hTREK-1, 64 nM; on human TREK-2 it was 110 nM. In data set [2], the “targets with >50% inhibition in Lead Profiling Panel” value was “only two targets displayed >50% inhibition”. Also, in “ChromatoLogD”, the chromatographic logD stood at 3.9.

In general, IC50 refers to the midpoint of a concentration-inhibition curve. One may read the chromatographic logD as a lipophilicity value derived from retention on a column. A lower chromatographic logD goes with lower lipophilicity.
